Active and inactive are the calls of the source. How the calls were made is not given here.
Experiment: CD40 pathway inhibition in B cells – B cell lineage, dose response (AID 1259332);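 further: cells stimulated with CD40 ligand tCD40L; 0% = neutral control wells and -100% = positive control wells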
Settings: B cell line, CD40 signaling inhibition reporter; at 0.38 µM (top of the series)

Compound | activity change, negative = inhibition
C[C@H]1CN([C@@H](C)CO)C(=O)c2ccccc2-c2ccccc2CO[C@H]1CN(C)Cc1ccc(Oc2ccccc2)cc1 | 6.67% (inactive)

Same assay, conditions: B cell line, CD40 signaling inhibition reporter; at 1.1 µM (top of the series)

Compound | activity change, negative = inhibition
O=C(Nc1nc2ccccc2s1)c1ccc(OCC2CCCO2)cc1 (stereo not given) | 111% (inactive)
CCc1cnc(N2[C@H](C#N)[C@@H](c3ccccc3C3=CCCC3)[C@@H]2CO)s1 | 18.2% (inactive)
COc1ccc(S(=O)(=O)N(C)C[C@H]2Oc3ccc(NC(=O)Nc4ccc(C(F)(F)F)cc4)cc3C(=O)N([C@@H](C)CO)C[C@@H]2C)cc1 | 11.5% (inactive)
CC(C)(C)[S@](=O)N1Cc2cc(C(=O)NCC(F)(F)F)nc(-c3cccc(-c4cccc(F)c4)c3)c2[C@@H]1CCO | 9.18% (inactive)
O=C1C(=NO)CCc2ccccc21 | 21.3% (inactive)
C[C@@H]1CCCCO[C@@H](CN(C)S(=O)(=O)c2ccc(Cl)cc2)[C@H](C)CN([C@H](C)CO)C(=O)c2cc(NC(=O)Nc3ccc(C(F)(F)F)cc3)ccc2O1 | 1.11% (inactive)
C/C=C/c1ccc(C2[C@H]3CNC[C@@H]2N3Cc2cccc(OC)c2)cc1 (stereo not given in full) | 19.7% (inactive)

Same assay, conditions: B cell line, CD40 signaling inhibition reporter; at 3 µM (top of the series)

Compound | activity change, negative = inhibition
O=C(Nc1ccccc1F)N1C[C@@H]2N[C@H](C1)C2c1ccc(/C=C/c2ccccc2)cc1 (stereo not given in full) | 2.39% (inactive)

Same assay, conditions: B cell line, CD40 signaling inhibition reporter; at 3.5 µM (top of the series)

Compound | activity change, negative = inhibition
C[C@@H]1CCCCO[C@@H](CN(C)CC2CCCCC2)[C@@H](C)CN([C@@H](C)CO)C(=O)c2cc(NC(=O)Nc3ccc(C(F)(F)F)cc3)ccc2O1 | -6.41% (inactive)
CCc1cnc(N2[C@H](C#N)[C@@H](c3ccc(C#CC(C)C)cc3)[C@H]2CO)s1 | 8.53% (inactive)
CCCNC(=O)c1cc2c(c(-c3cccc(-c4cc5ccccc5o4)c3)n1)[C@H](CCO)N(C(=O)NC(C)C)C2 | 4.19% (inactive)
CCCNC(=O)N1[C@H](CO)[C@H](c2ccc(-c3cccc(OC)c3)cc2)[C@@H]1C#N | 12% (inactive)
COc1ccc(S(=O)(=O)N(C)C[C@@H]2Oc3ccc(NC(=O)Nc4ccc(C(F)(F)F)cc4)cc3C(=O)N([C@H](C)CO)C[C@H]2C)cc1 | -10.6% (inactive)
O=C(CCN1CCC(c2ccccc2)C1)c1ccc2c(c1)OCCO2 (stereo not given) | 26.9% (inactive)
O=C1C=CC(=O)C2=C1C1c3ccccc3C2c2ccccc21 | -3.76% (inactive)
O=C(Nc1ccc(C(F)(F)F)cc1)Nc1ccc2c(c1)[C@H]1C[C@@H](CC(=O)N3CCc4ccccc4C3)O[C@@H](CO)[C@H]1O2 | -2.03% (inactive)
Cc1noc(C)c1NC(=O)N(C)C[C@@H]1OCCCC[C@@H](C)Oc2ccc(NC(=O)Nc3ccc(C(F)(F)F)cc3)cc2C(=O)N([C@H](C)CO)C[C@H]1C | -11.7% (inactive)
N#C[C@@H]1[C@@H](c2ccccc2)[C@H](CO)N1C(=O)CN1CCOCC1 | -5.63% (inactive)
O=C(NCCC(c1ccccc1)c1ccco1)c1cccs1 (stereo not given) | 25.6% (inactive)
COc1ccc(Cl)cc1NC(=O)Nc1cc(C)nc2ccccc12 | -7.79% (inactive)
O=C(Nc1ccc(C(F)(F)F)cc1)Nc1ccc2c(c1)[C@H]1C[C@@H](CC(=O)N3CCc4ccccc4C3)O[C@H](CO)[C@H]1O2 | 0.714% (inactive)
Oc1cc2c(cc1C(c1ccc(Br)cc1)N1CCCC1)OCO2 (stereo not given) | 16.1% (inactive)
CC(C)NC(=O)N1CC(=O)N2[C@H](CO)[C@@H](c3ccc(/C=C/c4ccccc4)cc3)[C@H]2C1 | 6.58% (inactive)
C[C@@H]1CN([C@@H](C)CO)C(=O)Cc2cc(NS(=O)(=O)c3ccccc3)ccc2O[C@H]1CN(C)Cc1ccc(Cl)c(Cl)c1 | 0.835% (inactive)
COc1ccc(-c2cnc3c(c2)C(=O)N([C@H](C)CO)C[C@@H](C)[C@@H](CN(C)C(=O)Nc2c(C)noc2C)O3)cc1 | -1.25% (inactive)
CC1=CC(=O)c2ccccc2C1=O | 11.2% (inactive)
CCCNC(=O)N1[C@H](CO)[C@H](c2ccc(/C=C/c3ccccc3)cc2)[C@@H]1C#N | 5% (inactive)
C[C@]12CC[C@H](O)C[C@H]1CC[C@@H]1[C@@H]2CC[C@]2(C)[C@@H](c3ccc(=O)oc3)CC[C@]12O | 1.4% (inactive)
C[C@@H]1CN([C@H](C)CO)C(=O)Cc2cc(NC(=O)Cc3cn(C)c4ccccc34)ccc2O[C@H]1CN(C)Cc1ccc(C(F)(F)F)cc1 | 0.703% (inactive)
Cc1ccc(-c2cc(C(=O)N3CC(C)OC(C)C3)c3ccccc3n2)o1 (stereo not given) | 26% (inactive)
N#C[C@H]1[C@H](c2ccc(C#CC3CCCCC3)cc2)[C@H](CO)N1C(=O)Nc1ccc(F)cc1 | -7.18% (inactive)
COc1cccc(S(=O)(=O)N(C)C[C@H]2OCc3ccccc3-c3c(n(C)c4ccccc34)C(=O)N([C@@H](C)CO)C[C@H]2C)c1 | -5.41% (inactive)
COc1ccc(CN2CC3(CN(C(=O)Cc4ccccc4)C3)c3c([nH]c4cc(OC)ccc34)[C@H]2CO)cc1 | -3.26% (inactive)
Cc1ccccc1-c1ccc(C2[C@@H]3CN(C(=O)Nc4cccc(F)c4)C[C@H]2N3)cc1 (stereo not given in full) | 7.95% (inactive)
